# Reference: patent publication US20160083397A1, “PARTHENOLIDE DERIVATIVES AND THEIR MODULATION OF PROCESSES CONTROLLED BY REGULATED TRANSLATION” (THE BOARD OF TRUSTEES OF THE UNIVERSITY OF ARKANSAS, priority 2013, published 2016)
# Several values for one entry are separate records, joined by “and”; a condition that tells them apart may be missing. Identical values can stand only once.
# Tests used:
# K-562 = conditions: for GI50: K-562, Leukemia
# SR = conditions: for GI50: SR, Leukemia
# NCI-H226 = conditions: for GI50: NCI-H226, Lung Cancer
# NCI-H522 = conditions: for GI50: NCI-H522, Lung Cancer
# HCT-15 = conditions: for GI50: HCT-15, Colon Cancer
# HT29 = conditions: for GI50: HT29, Colon Cancer
# SW-620 = conditions: for GI50: SW-620, Colon Cancer
# SF-295 = conditions: for GI50: SF-295, CNS Cancer
# SF-539 = conditions: for GI50: SF-539, CNS Cancer
# MALME-3M = conditions: for GI50: MALME-3M, Melanoma
# MDA-MB-435 = conditions: for GI50: MDA-MB-435, Melanoma
# SK-MEL-28 = conditions: for GI50: SK-MEL-28, Melanoma
# OVCAR-3 = conditions: for GI50: OVCAR-3, Ovarian Cancer
# OVCAR-5 = conditions: for GI50: OVCAR-5, Ovarian Cancer
# OVCAR-8 = conditions: for GI50: OVCAR-8, Ovarian Cancer
# NCI/ADR-RES = conditions: for GI50: NCI/ADR-RES, Ovarian Cancer
# SK-OV-3 = conditions: for GI50: SK-OV-3, Ovarian Cancer
# A498 = conditions: for GI50: A498, Renal Cancer
# CAKI-1 = conditions: for GI50: CAKI-1, Renal Cancer
# UO-31 = conditions: for GI50: UO-31, Renal Cancer
# PC-3 = conditions: for GI50: PC-3, Prostate Cancer
# MCF7 = conditions: for GI50: MCF7, Breast Cancer
# MDA-MB-231/ATCC = conditions: for GI50: MDA-MB-231/ATCC, Breast Cancer
# HS 578T = conditions: for GI50: HS 578T, Breast Cancer
# T-47D = conditions: for GI50: T-47D, Breast Cancer
# MDA-MB-468 = conditions: for GI50: MDA-MB-468, Breast Cancer
# ACHN = assay: NCI 60-cell line five dose screen: ACHN; conditions: Renal Cancer
substance,measurement,setting,value
13-(2-iodoimidazole)parthenolide [PNR-5-65],CC50,K-562,90 µM
same,GI50,K-562,7.36 µM
same,CC50,SR,> 100 µM
same,GI50,SR,13.6 µM
same,CC50,NCI-H226,62.3 µM
same,GI50,NCI-H226,15.4 µM
same,CC50,NCI-H522,6.34 µM
same,GI50,NCI-H522,1.77 µM and 1.71 µM
same,CC50,HCT-15,55.6 µM
same,GI50,HCT-15,10.7 µM
same,CC50,HT29,61.5 µM
same,GI50,HT29,17.6 µM
same,CC50,SW-620,62.8 µM
same,GI50,SW-620,11.4 µM
same,CC50,SF-295,> 100 µM
same,GI50,SF-295,32.1 µM
same,CC50,SF-539,60.8 µM
same,GI50,SF-539,16.7 µM
same,CC50,MALME-3M,62.7 µM
same,GI50,MALME-3M,10.9 µM
same,CC50,MDA-MB-435,59.5 µM
same,GI50,MDA-MB-435,13.8 µM
same,CC50,SK-MEL-28,73 µM
same,GI50,SK-MEL-28,16.1 µM
same,CC50,OVCAR-3,50.8 µM
same,GI50,OVCAR-3,6.85 µM
same,CC50,OVCAR-5,52.5 µM
same,GI50,OVCAR-5,13.7 µM
same,CC50,OVCAR-8,59.9 µM
same,GI50,OVCAR-8,16.6 µM
same,CC50,NCI/ADR-RES,> 100 µM
same,GI50,NCI/ADR-RES,31.2 µM
same,CC50,SK-OV-3,> 100 µM
same,GI50,SK-OV-3,47.3 µM
same,CC50,A498,> 100 µM
same,GI50,A498,45.2 µM
same,CC50,CAKI-1,49.5 µM
same,GI50,CAKI-1,6.61 µM
same,CC50,UO-31,50 µM
same,GI50,UO-31,10.8 µM
same,CC50,PC-3,> 100 µM
same,GI50,PC-3,23.1 µM
same,CC50,MCF7,> 100 µM
same,GI50,MCF7,9.79 µM
same,CC50,MDA-MB-231/ATCC,59.6 µM
same,GI50,MDA-MB-231/ATCC,16.4 µM
same,CC50,HS 578T,> 100 µM
same,GI50,HS 578T,21.3 µM
same,CC50,T-47D,54.3 µM
same,GI50,T-47D,9.88 µM
same,CC50,MDA-MB-468,60.4 µM
same,GI50,MDA-MB-468,11.1 µM
same,GI50,ACHN,10.5 µM
(E)-13-(3-thiopheno)parthenolide [PNR-5-53],CC50,K-562,> 100 µM
same,GI50,K-562,25.2 µM
same,CC50,SR,> 100 µM
same,GI50,SR,20.7 µM
same,CC50,NCI-H226,> 100 µM
same,GI50,NCI-H226,30.2 µM
same,CC50,NCI-H522,59.7 µM
same,GI50,NCI-H522,5.44 µM
same,CC50,HCT-15,> 100 µM
same,GI50,HCT-15,22.6 µM
same,CC50,HT29,> 100 µM
same,GI50,HT29,27 µM
same,CC50,SW-620,> 100 µM
same,GI50,SW-620,22.9 µM
same,CC50,SF-295,> 100 µM
same,GI50,SF-295,28.5 µM
same,GI50,SF-539,16.1 µM
same,CC50,MALME-3M,> 100 µM
same,GI50,MALME-3M,22.5 µM
same,CC50,MDA-MB-435,> 100 µM
same,GI50,MDA-MB-435,18.3 µM
same,CC50,SK-MEL-28,> 100 µM
same,GI50,SK-MEL-28,29.4 µM
same,CC50,OVCAR-3,> 100 µM
same,GI50,OVCAR-3,20.5 µM
same,CC50,OVCAR-5,> 100 µM
same,GI50,OVCAR-5,48.1 µM
same,CC50,OVCAR-8,> 100 µM
same,GI50,OVCAR-8,26.9 µM
same,CC50,NCI/ADR-RES,> 100 µM
same,GI50,NCI/ADR-RES,23.6 µM
same,CC50,SK-OV-3,> 100 µM
same,GI50,SK-OV-3,44.9 µM
same,CC50,A498,> 100 µM
same,GI50,A498,17.5 µM
same,CC50,CAKI-1,> 100 µM
same,GI50,CAKI-1,30.9 µM
same,CC50,UO-31,> 100 µM
same,GI50,UO-31,27.3 µM
same,CC50,PC-3,> 100 µM
same,GI50,PC-3,22.7 µM
same,CC50,MCF7,> 100 µM
same,GI50,MCF7,20 µM
same,CC50,MDA-MB-231/ATCC,81.8 µM
same,GI50,MDA-MB-231/ATCC,16 µM
same,CC50,HS 578T,> 100 µM
same,GI50,HS 578T,21.5 µM
same,CC50,T-47D,> 100 µM
same,GI50,T-47D,29.5 µM
same,CC50,MDA-MB-468,> 100 µM
same,GI50,MDA-MB-468,17.7 µM
same,GI50,ACHN,32.8 µM
